# Experimental data reported in article PMC10885115, “Susceptibility of Tetranychus urticae to the Alkaloidal Extract of Zanthoxylum schreberi Bark: Phenotypic and Biochemical Insights for Biotechnological Exploitation” (BioTech, 2024).
# Values joined by “and” are separate entries in the source; they are usually repeats but may differ in a detail not shown here. Equal entries are not always repeated. Where two headings read alike, the source gives them in different places.
# Assays:
# [1] = molecular target: glutathione S-transferase (GST); assay: GST inhibition in T. urticae protein homogenate; type: biochemical, Tetranychus urticae; settings: pure compounds, read-out: GST IC50 (95% interval confidence)
# Protocol: (§1) The protein homogenate from T. urticae adult females (n = 50) was prepared by homogenizing them in 500 μL of 0.1 M phosphate buffer (pH 7.2) in an ice bath. After homogenization, the mixture was centrifuged at 12,000× g for 20 min at 4 °C. Both untreated mites and those treated with 0.5% Z. schreberi bark extract were processed similarly. The protein content within the homogenate was quantified using the linearized Bradford micromethod, employing bovine serum albumin as an external standard. A calibration curve was established based on the ratio of absorbance measurements at 590 nm and 450 nm, ensuring linearity with varying protein concentrations. The resulting supernatant was subsequently stored at −20 °C for further enzyme analysis.
# GST activity was assessed using 1-chloro-2, 4-dinitrobenzene (CDNB) as the substrate, following a previous procedure. Briefly, the reaction was initiated by mixing CDNB (50 mM in ethanol, 50 µL) and reduced glutathione (50 mM in 0.1 M phosphate-buffered saline (PBS), pH 6.5, 150 µL) in a 5 mL vial with phosphate buffer (0.1 M, pH 6.5 containing 1 mM EDTA, 2.78 mL). Subsequently, 20 µL of protein homogenate was added, and the solution was thoroughly mixed. An aliquot (200 µL) from the resulting mixture was dispensed into a microtiter plate well for measurement, with the procedure performed in triplicate for both biological and technical replicates. The absorbance of each reaction mixture at 340 nm was then recorded using kinetics on a Varioskan LUX 96-well plate reader (Thermo Fisher Scientific, Waltham, MA, USA) after a 10 min duration. The specific GST activity was calculated using the kinetic slope to convert μmoles of product per minute (9.6 mM^−1cm^−1 and 0.3 cm), thereby determining the specific enzyme activity expressed as μmol of substrate/min/mg protein.
# (§2) Further investigation involved determining the inhibition of the test enzymes (i.e., AChE, GST, esterase, and PMO). […] The final absorbance measurements of each treatment (At) and control (Ac) were related to the calculated enzyme inhibition percentage using Equation (3). (3) Enzyme Inhibition (%)=[…]
# (§3) This determination was performed for each treatment concentration (extract and purified compound) to establish dose–response curves. The IC50 (half-maximal inhibitory concentration in μg/mL for extract and μM for pure compounds) was calculated via nonlinear regression analysis using GraphPad 7.0 (GraphPad Software LLC, Boston, MA, USA).
# P450 monooxygenase (PMO) = assay: PMO inhibition in T. urticae protein homogenate; type: biochemical, Tetranychus urticae; settings: pure compounds, read-out: PMO IC50 (95% interval confidence)
# Protocol: as §1
# The PMO activity was measured by reducing hydrogen peroxide to oxidize 3,3′,5,5′-tetramethylbenzidine (TMBZ), following a previous procedure. Briefly, the protein homogenate (20 µL) was mixed in a microtiter plate well with 6 mM TMBZ (200 µL) working solution (TMBZ (0.01 g) in methanol (5 mL) and 0.25 M sodium acetate (pH 5.0, 15 mL)) and 3% H2O2 (25 µL) for 30 min at 25 °C. After this incubation period, the absorbance was read at 630 nm on a Varioskan LUX 96-well plate reader (Thermo Fisher Scientific, Waltham, MA, USA). The standard curve of heme peroxidase activity was prepared using Cytochrome C from equine heart (Merck, Milwakee, WI, USA). Total Cytochrome P450 monoxygenase was expressed as µmoles of Cytochrome P450 equivalent units (CPEU)/min/mg protein.
# as §2, §3
# general esterases = assay: General esterase inhibition in T. urticae protein homogenate; type: biochemical, Tetranychus urticae; settings: pure compounds, read-out: Est IC50 (95% interval confidence)
# Protocol: as §1
# Enzyme activity of general esterases was assessed using p-nitrophenylacetate as substrate, following a previous procedure. In brief, the protein homogenate (10 µL) was mixed in a microtiter plate well with 1 mM p-nitrophenyl acetate (200 µL) in 50 mM phosphate buffer pH 7.4. The absorbance was measured at 405 nm after a 10 min incubation period using a Varioskan LUX 96-well plate reader (Thermo Fisher Scientific, Waltham, MA, USA). The specific esterase activity was calculated using the kinetic slope to convert μmoles of product per minute (6.53 mM^−1cm^−1 and 0.3 cm), thereby determining the specific enzyme activity expressed as μmol of substrate/min/mg protein.
# as §2, §3
# [2] = molecular target: acetylcholinesterase (AChE) and butyrylcholinesterase (BuChE) from various sources; design: method as in PMID 37073143; settings: most potent of 34 isoquinoline alkaloids; cited from earlier work
# [3] = system: T. urticae females from the unexposed rearing system; assay: Preliminary mortality test with unexposed mites; type: in vivo, Tetranychus urticae; settings: 0.4% chlorfenapyr (positive control), airbrush application
# Protocol: A preliminary trial was conducted to determine the effect of Z. schreberi alkaloidal extract on mites for subsequent experiments, following the methodology outlined by Numa et al. (2015), with certain modifications. Briefly, the bioassay comprised a bean leaf with its underside facing upward, which was placed in a petri dish and its edges lined with cotton moistened using distilled water. Ten T. urticae females from the unexposed rearing system were situated on each leaf. The bioassay on females was driven by their pivotal role in population dynamics, as they are the primary contributors to new individuals. The net reproductive rate per generation (Ro) or population replacement rate is directly dependent on female reproductive capabilities. Consequently, any lethal or sublethal effects observed in females and oviposition will directly influence population growth. This approach led us to assess the potential of the extracts as a promising strategy for pest control, considering their impact on the crucial factor of population expansion. Subsequently, each dish was sealed with plastic wrap post-application of treatments. The evaluated treatments comprised an absolute control (mites without any application), a positive control (chlorfenapyr at 0.4%), and the alkaloidal extract of Z. schreberi at 2%. […] Deceased mites were counted 24 h post-application.
# [4] = system: T. urticae adult females (exposed mite population); assay: Mortality test for Z. schreberi bark extract using exposed mites (leaf-immersion); type: in vivo, Tetranychus urticae; settings: 0.06% chlorfenapyr (PC, commercially recommended dose)
# From the text: The experimental setup involved a transparent cylindrical container with a 3.5 cm diameter filter paper disk placed at the bottom, moistened with distilled water. Bean leaf disks, previously immersed in the respective extract solution and air-dried, were then positioned on the paper disk. The container lid underwent modification, featuring a centrally located circular opening. A metal mesh, perforated with small holes, was affixed using silicone around this opening to facilitate ventilation and prevent mites from escaping. Concentrations ranging from 2, 1, 0.5, and 0.25, to 0.125% of the Z. schreberi bark alkaloidal extract were evaluated diluted in 10% ethanol. These concentrations were selected since they comprise typical doses for botanical pesticides, and, consequently, they were standardized in previous studies in our laboratory to assess botanical extracts. Additionally, three control treatments were employed: an absolute control (application of distilled water), a relative control (10% ethanol), and a positive control (clorfenapyr at 0.06%). Mortality assessments were conducted at 24, 48, and 72 h post-treatment application. The obtained mortality data were adjusted using Schneider–Orelli’s formula (Equation (1)). […]
# [5] = system: T. urticae adult females (exposed mite population); assay: Repellency test for Z. schreberi bark extract using exposed mites; type: in vivo, Tetranychus urticae; settings: 0.06% chlorfenapyr
# [6] = system: T. urticae adult females (exposed mite population); assay: Mortality test for extract combined with commercial acaricides (exposed mites); type: in vivo, Tetranychus urticae
# Protocol: (§4) Using the same methodology described in the previous section, the following treatments were evaluated in this test: absolute control (application of distilled water), relative control (10% ethanol), positive control A (clorfenapyr at 0.06%), positive control B (cyflumetofen at 0.075%), positive control C (abamectin at 0.05%), treatment 1 (0.5% extract), treatment 2 (0.5% extract + 0.06% clorfenapyr), treatment 3 (0.5% extract + 0.075% cyflumetofen), and treatment 4 (0.5% extract + 0.05% abamectin). Mortality assessments were conducted at 24, 48, and 72 h post-treatment application and adjusted using the Schneider–Orelli formula (Equation (1)). Fecundity was also measured by isolating five surviving females per treatment (after 72 h of exposure to treatments) in petri dishes. The number of eggs oviposited by each female was counted every 24 h over 5 days. Simultaneously with the susceptibility test, the repellent effect of the extract was measured by counting the number of surviving females placed outside the leaves after 24, 48, and 72 h. All laboratory tests were conducted under controlled conditions at 25 ± 2 °C, 60 ± 5% relative humidity, and a 12:12 (light/dark) photoperiod.
# [7] = system: T. urticae adult females (exposed mite population); assay: Fecundity (oviposition) test for extract combined with commercial acaricides; type: in vivo, Tetranychus urticae; settings: 0.06% chlorfenapyr, 0.075% cyflumetofen, 0.05% abamectin, 0.5% extract and combinations M2 to M4; surviving females after 72 h exposure
# Protocol: as §4
# T. urticae = settings: cited from earlier work
# [8] = system: T. cinnabarinus Boisdu-Val; design: method as in PMID 24861930; settings: resistant strain; cited from earlier work
# [9] = molecular target: T1, acetylcholinesterase (AChE) (Tetranychus urticae, UniProt D8V7J9); type: biochemical; settings: pure compounds; T. urticae protein homogenate; read-out: AChE IC50 (95% interval confidence)
# T1 sequence (D8V7J9 74-665): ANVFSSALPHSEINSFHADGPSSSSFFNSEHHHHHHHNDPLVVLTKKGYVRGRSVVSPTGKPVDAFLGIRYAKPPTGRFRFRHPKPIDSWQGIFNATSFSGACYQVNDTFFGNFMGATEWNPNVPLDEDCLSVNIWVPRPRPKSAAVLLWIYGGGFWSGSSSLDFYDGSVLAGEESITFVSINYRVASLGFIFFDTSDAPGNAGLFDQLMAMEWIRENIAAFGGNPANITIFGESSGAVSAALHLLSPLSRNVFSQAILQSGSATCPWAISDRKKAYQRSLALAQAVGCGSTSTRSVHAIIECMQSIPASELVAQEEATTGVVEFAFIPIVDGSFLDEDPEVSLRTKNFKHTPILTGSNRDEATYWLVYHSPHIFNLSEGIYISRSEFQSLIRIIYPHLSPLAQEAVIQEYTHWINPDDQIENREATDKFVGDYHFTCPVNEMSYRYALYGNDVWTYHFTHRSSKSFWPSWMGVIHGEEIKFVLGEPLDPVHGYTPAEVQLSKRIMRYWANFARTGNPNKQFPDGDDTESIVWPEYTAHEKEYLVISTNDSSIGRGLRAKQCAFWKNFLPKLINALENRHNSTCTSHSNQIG
# Protocol: The protein homogenate from T. urticae adult females (n = 50) was prepared by homogenizing them in 500 μL of 0.1 M phosphate buffer (pH 7.2) in an ice bath. After homogenization, the mixture was centrifuged at 12,000× g for 20 min at 4 °C. […] The protein content within the homogenate was quantified using the linearized Bradford micromethod [40], employing bovine serum albumin as an external standard. A calibration curve was established based on the ratio of absorbance measurements at 590 nm and 450 nm, ensuring linearity with varying protein concentrations [40]. The resulting supernatant was subsequently stored at −20 °C for further enzyme analysis.
# The Ellman method was employed to assess AChE activity in both untreated and Z. schreberi-treated mites, following a previous procedure [41]. […]
# Further investigation involved determining the inhibition of the test enzymes (i.e., AChE, GST, esterase, and PMO). […] The final absorbance measurements of each treatment (At) and control (Ac) were related to the calculated enzyme inhibition percentage using Equation (3). […]
Molecule,IC50 [1] [µM],IC50 (P450 monooxygenase (PMO)) [µM],IC50 (general esterases) [µM],Average fecundity per female over 5 days compared to controls AC and RC [7],also measured
"COc1ccc2cc3[n+](cc2c1O)CCc1cc2c(cc1-3)OCO2 [Compound 3, berberrubine]",5.61,62.7,> 300,,
"COc1ccc2c(c[n+](C)c3c4cc5c(cc4ccc23)OCO5)c1OC [Compound 4, chelerythrine]",11.7,89.6,> 300,,
"COc1ccc2cc3[n+](cc2c1OC)CCc1cc2c(cc1-3)OCO2 [Compound 6, berberine]",1.24,386,> 300,,IC50 [2]: 0.72 µg/mL
"COc1c(O)ccc2cnc3c4cc5c(cc4ccc3c12)OCO5 [Compound 9, zanthoxyline]",21.5,8.37,289,,
CCOCn1c(-c2ccc(Cl)cc2)c(C#N)c(Br)c1C(F)(F)F [chlorfenapyr],,,,statistically significant reduction,"Corrected mortality after 24 h [3]: 93.3%; Corrected average mortality after 72 h [4]: 24.6%; Repellency after 72 h [5]: lowest repellency; Corrected average mortality after 72 h ([6]; 0.06% chlorfenapyr alone (PCA)): 20.9%; LD50 (T. urticae; two resistant strains of T. urticae, listed as clorfenapyr): 0.08% and 0.29%"
COCCOC(=O)C(C#N)(C(=O)c1ccccc1C(F)(F)F)c1ccc(C(C)(C)C)cc1 (stereo not shown) [cyflumetofen],,,,statistically significant reduction,Corrected average mortality after 72 h ([6]; 0.075% cyflumetofen alone (PCB)): 32.5%; LD50 (T. urticae; susceptible strain of T. urticae): 0.00011%; LD50 [8]: 0.0016%
abamectin,,,,statistically significant reduction,
fagaridine [Compound 5],112,20.9,> 300,,IC50 [9]: 14.6 µM
